Results reported in patent US7192948B2, “Bicyclic heterocycles as HIV integrase inhibitors” (priority 2004, dated 2007).

Key:
[1] = target: T1, HIV-integrase (Human immunodeficiency virus type 1 group M subtype B, UniProt P12497); test: HIV-Integrase Inhibition Activity (SPA bead strand transfer assay); type: biochemical; conditions: recombinant integrase, in vitro
T1 construct: Recombinant integrase (0.26 ng) was incubated with the beads
Experimental: HIV-Integrase Inhibition Activity. To evaluate in-vitro activity against HIV-integrase, 5 pmole of biotin labeled substrate DNA was bound to 100 μg of Streptavidin coated PVT SPA beads (Amersham Pharmacia Biotech). Recombinant integrase (0.26 ng) was incubated with the beads for 90 min at 37° C. Unbound enzyme was removed by washing the complex followed by addition of inhibitors and 0.1 fmol of P33 labeled target DNA. The reaction was stopped by adding EDTA to a final concentration of […]. Samples were counted in TopCountNXT (Packard) and the CPM was used as a measure of integration. The reaction condition was as described in A. Engelman and R. Craigie, J. Virol. 69, 5908–5911 (1995). The sequences of substrate and target DNA were described in Nucleic Acid Research 22, 1121–1122 (1994).

Row | Compound | IC50 [1] [nM] | melting point
1 | CN1C(=O)CCn2c1nc(C(=O)NCc1ccc(F)c(Cl)c1)c(O)c2=O [Example 21, N-(3-Chloro-4-fluorobenzyl)-3-hydroxy-9-methyl-4,8-dioxo-6,7,8,9-tetrahydro-4H-pyrimido[1,2-a]pyrimidine-2-carboxamide] | 4 to 15 | 201 °C
2 | O=C1Cn2c(nc(C(=O)NCc3ccc(F)c(Cl)c3)c(O)c2=O)N1 [Example 4, 6-Hydroxy-2,5-dioxo-1,2,3,5-tetrahydro-imidazo[1,2-a]pyrimidine-7-carboxylic acid 3-chloro-4-fluoro-benzylamide] | 16 to 49000 | 295 °C (dec.)
3 | Cc1ccc(CNC(=O)c2nc3n(c(=O)c2O)CC(=O)N3)cc1C [Example 5, 6-Hydroxy-2,5-dioxo-1,2,3,5-tetrahydro-imidazo[1,2-a]pyrimidine-7-carboxylic acid 3,4-dimethyl-benzylamide] | 16 to 49000 | 287 °C (dec.)
4 | Cc1cc(CNC(=O)c2nc3n(c(=O)c2O)CCC(=O)N3)ccc1F [Example 8, 3-Hydroxy-4,8-dioxo-6,7,8,9-tetrahydro-4H-pyrimido[1,2-a]pyrimidine-2-carboxylic acid 4-fluoro-3-methyl-benzylamide] | 4 to 15 | > 300 °C
5 | O=C1Cn2c(nc(C(=O)NCc3ccc(Cl)c(Cl)c3)c(O)c2=O)N1 [Example 2, 6-Hydroxy-2,5-dioxo-1,2,3,5-tetrahydro-imidazo[1,2-a]pyrimidine-7-carboxylic acid 3,4-dichloro-benzylamide] | 4 to 15 | 280 °C (dec.)
6 | O=C(NCc1ccc(F)cc1)c1nc2n(c(=O)c1O)CCS(=O)(=O)N2 [Example 24, 7-Hydroxy-2,2,6-trioxo-1,3,4,6-tetrahydro-2H-2λ^6-pyrimido[2,1-c][1,2,4]thiadiazine-8-carboxylic acid 4-fluoro-benzylamide] | ≥ 50 | –
7 | O=C(NCc1ccc(F)cc1)c1nc2n(c(=O)c1O)CC(=O)N2Cc1ccccc1 [Example 14, N-(4-Fluorobenzyl)-1-benzyl-6-hydroxy-2,5-dioxo-1,2,3,5-tetrahydroimidazo[1,2-a]pyrimidine-7-carboxamide] | 16 to 49000 | –
8 | Cc1cc(CNC(=O)c2nc3n(c(=O)c2O)CCC(=O)N3C)ccc1F [Example 20, N-(4-Fluoro-3-methylbenzyl)-3-hydroxy-9-methyl-4,8-dioxo-6,7,8,9-tetrahydro-4H-pyrimido[1,2-a]pyrimidine-2-carboxamide] | 4 to 15 | 216 °C
9 | CNC(=O)c1cc(F)ccc1CNC(=O)c1nc2n(c(=O)c1O)CC(=O)N2Cc1ccccc1 [Example 16, N-(4-Fluoro-2-(methylcarbamoyl)benzyl)-1-benzyl-6-hydroxy-2,5-dioxo-1,2,3,5-tetrahydroimidazo[1,2-a]pyrimidine-7-carboxamide] | 16 to 49000 | –
10 | CN1C(=O)Cn2c1nc(C(=O)NCc1ccc(F)c(Cl)c1)c(O)c2=O [Example 12, N-(3-Chloro-4-fluorobenzyl)-6-hydroxy-1-methyl-2,5-dioxo-1,2,3,5-tetrahydroimidazo[1,2-a]pyrimidine-7-carboxamide] | 16 to 49000 | –
11 | O=C1Cn2c(nc(C(=O)NCc3ccc(F)cc3)c(O)c2=O)N1 [Example 1, 6-Hydroxy-2,5-dioxo-1,2,3,5-tetrahydro-imidazo[1,2-a]pyrimidine-7-carboxylic acid 4-fluoro-benzylamide] | ≥ 50 | –
12 | CN1C(=O)Cn2c(nc(C(=O)NCc3ccc(Cl)c(Cl)c3)c(O)c2=O)N1C [Example 26, N-(3,4-Dichlorobenzyl)-1,2-dimethyl-7-hydroxy-3,6-dioxo-2,3,4,6-tetrahydro-1H-pyrimido[2,1-c][1,2,4]triazine-8-carboxamide] | 16 to 49000 | –
13 | CNC(=O)c1cc(F)ccc1CNC(=O)c1nc2n(c(=O)c1O)CC(C)(C)S2 [Example 42, N-(4-Fluoro-2-(methylcarbamoyl)benzyl)-6-hydroxy-2,2-dimethyl-5-oxo-3,5-dihydro-2H-thiazolo[3,2-a]pyrimidine-7-carboxamide] | ≥ 50 | –
14 | CN1C(=O)CCn2c1nc(C(=O)NCc1ccc(Cl)c(Cl)c1)c(O)c2=O [Example 19, N-(3,4-Dichlorobenzyl)-3-hydroxy-9-methyl-4,8-dioxo-6,7,8,9-tetrahydro-4H-pyrimido[1,2-a]pyrimidine-2-carboxamide] | 4 to 15 | 198 to 201 °C
15 | CC1(C)Cn2c(nc(C(=O)NCc3ccc(F)cc3)c(O)c2=O)S1 [Example 41, N-(4-Fluorobenzyl)-6-hydroxy-2,2-dimethyl-5-oxo-3,5-dihydro-2H-thiazolo[3,2-a]pyrimidine-7-carboxamide] | ≥ 50 | –
16 | Cc1ccc(CNC(=O)c2nc3n(c(=O)c2O)CCC(=O)N3C)cc1C [Example 22, N-(3,4-Dimethylbenzyl)-3-hydroxy-9-methyl-4,8-dioxo-6,7,8,9-tetrahydro-4H-pyrimido[1,2-a]pyrimidine-2-carboxamide] | 16 to 49000 | 181 °C

Row | Compound | IC50 [1] [nM] | melting point
17 | O=C1CCn2c(nc(C(=O)NCc3ccc(Cl)c(Cl)c3)c(O)c2=O)N1 [Example 7, 3-Hydroxy-4,8-dioxo-6,7,8,9-tetrahydro-4H-pyrimido[1,2-a]pyrimidine-2-carboxylic acid 3,4-dichloro-benzylamide] | 4 to 15 | > 300 °C (dec.)
18 | Cc1cc(CNC(=O)c2nc3n(c(=O)c2O)CC(=O)N3)ccc1F [Example 3, 6-Hydroxy-2,5-dioxo-1,2,3,5-tetrahydro-imidazo[1,2-a]pyrimidine-7-carboxylic acid 4-fluoro-3-methyl-benzylamide] | 16 to 49000 | 287 °C (dec.)
19 | O=C1CCn2c(nc(C(=O)NCc3ccc(F)cc3)c(O)c2=O)N1 [Example 6, 3-Hydroxy-4,8-dioxo-6,7,8,9-tetrahydro-4H-pyrimido[1,2-a]pyrimidine-2-carboxylic acid 4-fluoro-benzylamide] | 16 to 49000 | > 300 °C (dec.)
20 | CN1C(=O)Cn2c1nc(C(=O)NCc1ccc(Cl)c(Cl)c1)c(O)c2=O [Example 10, N-(3,4-Dichlorobenzyl)-6-hydroxy-1-methyl-2,5-dioxo-1,2,3,5-tetrahydroimidazo[1,2-a]pyrimidine-7-carboxamide] | 4 to 15 | –
21 | Cc1cc(CNC(=O)c2nc3n(c(=O)c2O)CC(=O)N(C)N3C)ccc1F [Example 27, N-(4-Fluoro-3-methylbenzyl)-1,2-dimethyl-7-hydroxy-3,6-dioxo-2,3,4,6-tetrahydro-1H-pyrimido[2,1-c][1,2,4]triazine-8-carboxamide] | 16 to 49000 | –
22 | Cc1cc(CNC(=O)c2nc3n(c(=O)c2O)CC(=O)N2CCCN32)ccc1F [Example 35, 7-Hydroxy-4,6-dioxo-2,3,4,5-tetrahydro-1H,6H-3a,5a,9,9b-tetraaza-benz[e]indene-8-carboxylic acid 4-fluoro-3-methyl-benzylamide] | 4 to 15 | –
23 | Cc1ccc(CNC(=O)c2nc3n(c(=O)c2O)CCS3)cc1C [Example 39, N-(3,4-Dimethylbenzyl)-6-hydroxy-5-oxo-3,5-dihydro-2H-thiazolo[3,2-a]pyrimidine-7-carboxamide] | 16 to 49000 | –
24 | CNC(=O)c1cc(F)ccc1CNC(=O)c1nc2n(c(=O)c1O)CCS2 [Example 40, N-(4-Fluoro-2-(methylcarbamoyl)benzyl)-6-hydroxy-5-oxo-3,5-dihydro-2H-thiazolo[3,2-a]pyrimidine-7-carboxamide] | 16 to 49000 | –
25 | O=C(NCc1ccc(Cl)c(Cl)c1)c1nc2n(c(=O)c1O)CCS2 [Example 38, N-(3,4-Dichlorobenzyl)-6-hydroxy-5-oxo-3,5-dihydro-2H-thiazolo[3,2-a]pyrimidine-7-carboxamide] | 4 to 15 | –
26 | O=C(NCc1ccc(F)cc1)c1nc2n(c(=O)c1O)CC(=O)N1CCCCN21 [Example 33, 2-Hydroxy-1,9-dioxo-5,6,7,8,9,10-hexahydro-1H-4,4b,8a,10a-tetraaza-phenanthrene-3-carboxylic acid 4-fluoro-benzylamide] | 16 to 49000 | –
27 | CN1Nc2nc(C(=O)NCc3ccc(Cl)c(Cl)c3)c(O)c(=O)n2CC1=O [Example 31, N-(3,4-Dichlorobenzyl)-7-hydroxy-2-methyl-3,6-dioxo-2,3,4,6-tetrahydro-1H-pyrimido[2,1-c][1,2,4]triazine-8-carboxamide] | 4 to 15 | –
28 | CNC(=O)c1cc(F)ccc1CNC(=O)c1nc2n(c(=O)c1O)CCC(=O)N2C [Example 23, N-(4-Fluoro-2-(methylcarbamoyl)benzyl)-3-hydroxy-9-methyl-4,8-dioxo-6,7,8,9-tetrahydro-4H-pyrimido[1,2-a]pyrimidine-2-carboxamide] | 4 to 15 | –
29 | CN1C(=O)Cn2c(nc(C(=O)NCc3ccc(F)c(Cl)c3)c(O)c2=O)N1C [Example 28, N-(3-Chloro-4-fluorobenzyl)-1,2-dimethyl-7-hydroxy-3,6-dioxo-2,3,4,6-tetrahydro-1H-pyrimido[2,1-c][1,2,4]triazine-8-carboxamide] | 16 to 49000 | –
30 | O=C(NCc1ccc(F)cc1)c1nc2n(c(=O)c1O)CC(=O)N1CCC[C@@H]21 [Example 46, (S)-7-Hydroxy-4,6-dioxo-2,3,4,5,6,9b-hexahydro-1H-3a,5a,9-triaza-benz[e]indene-8-carboxylic acid 4-fluoro-benzylamide] | ≥ 50 | –
31 | CN1C(=O)Cn2c(nc(C(=O)NCc3ccc(F)cc3)c(O)c2=O)N1C [Example 25, N-(4-Fluorobenzyl)-1,2-dimethyl-7-hydroxy-3,6-dioxo-2,3,4,6-tetrahydro-1H-pyrimido[2,1-c][1,2,4]triazine-8-carboxamide] | 16 to 49000 | –
